Measurements from PMC11750672, “The in vivo metabolic pathway of Deg-AZM and in vitro investigations into the contribution of drug metabolizing enzymes and drug transporters in the drug interactions of Deg-AZM, a clinical-stage new transgelin agonist” (Frontiers in Pharmacology, 2025).

Tests used:
[1] = set-up: method as in Gu et al., 2024; conditions: rats, 0-24 h; ref Gu et al., 2024; cited from earlier work
[2] = test system: CYP3A4; test: CYP induction (mRNA, qPCR) in human hepatocytes; assay type: in vitro ADME; conditions: for CYP3A4 induction, % of PC: PC rifampicin 20 μM
Description: (§1) After culture and complete induction, total mRNA was extracted by TRNzol RNA Extraction Kit (purchased from Tiangen Biochemical Technology Co., Ltd., Beijing). The RNA was reverse transcribed into cDNA according to the instructions of the Transcriptor First Strand cDNA Synthesis Kit (purchased from Roche, Switzerland). Using reverse transcribed cDNA as a template, amplifying the internal reference genes of β-Actin of the sample and target genes of CYP1A2, CYP2B6, and CYP3A4 respectively to compare the expression differences.

[3] = test system: CYP1A2; test: CYP induction (mRNA, qPCR) in human hepatocytes; assay type: in vitro ADME; conditions: for CYP1A2 induction, % of PC: PC omeprazole 50 μM
Description: as §1

[4] = test system: inactivated monomeric enzyme; test: Recombinant CYPs phenotyping assay, inactivated enzyme control; assay type: in vitro ADME, human; conditions: control group with inactivated monomeric enzyme, 1.5 h
Experimental: Deg-AZM (1 μM) was treated with pooled NADPH (1 mM) and recombinant CYPs (rCYP1A2, rCYP2B6, rCYP2C8, rCYP2C9, rCYP2C19, rCYP2D6, and rCYP3A4, purchased from Research Institute for Liver Diseases Co. Ltd., Shanghai) at 25 pmol/mL for 90 min. The isoform-selective probe substrates served as positive controls (same as the positive controls in HLM phenotyping assays).

[5] = test system: pooled HLM; test: HLM phenotyping assay, control group and positive control systems; assay type: in vitro ADME, human; conditions: 1 μM, HLM 0.5 mg/mL, NADPH, 90 min, control group without inhibitors
Experimental: Deg-AZM (1 μM) was treated with pooled HLM (0.5 mg/mL) and NADPH (1 mM) for 90 min with or without seven specific inhibitors (10 µM furafylline for CYP1A2, 10 µM ticlopidine for CYP2B6, 5 µM montelukast for CYP2C8, 10 µM sulfaphenazole for CYP2C9, 10 µM ticlopidine for CYP2C19, 2.5 µM quinidine for CYP2D6, 1 µM ketoconazole for CYP3A). Isoform-selective probe substrates, 10 µM phenacetin for CYP1A2, 20 µM bupropion for CYP2B6, 2 µM amodiaquine for CYP2C8, 5 µM diclofenac for CYP2C9, 20 µM S-mephenytoin for CYP2C19, 5 µM bufuralol for CYP2D6, 2 µM midazolam for CYP3A4, were used as positive controls.

[6] = biological target: T1, P-gp (Homo sapiens, UniProt P08183); test: Bidirectional transport in Caco-2 cell monolayer with P-gp inhibitor quinidine; assay type: in vitro ADME; conditions: ER > 2, reduced after quinidine
T1 construct: evaluated using Caco-2 cell monolayer both apical-to-basolateral (A-B) and basolateral-to-apical (B-A) directions; endogenous in cells; host or cells: Caco-2
Experimental: (§2) The human colon adenocarcinoma Caco-2 cell line was provided by Institute of Basic Medicine, Chinese Academy of Medical Sciences (Beijing, China). Caco-2 cells were cultured in a high sugar DMEM medium containing 10% (v/v) fetal bovine serum at 37°C and 5% CO2 incubator. Caco-2 cells (2.5 ×10^5/mL) was inoculated into Transwell polycarbonate membrane 12 well plate. The culture medium was changed every 2 days for the first 14 days, and then every day. After 21 consecutive days, fully differentiated cell monolayers were obtained for drug transport assays.
(§3) Transepithelial electrical resistance (TEER) was used to indicate monolayer integrity. The electrode of the Millcell ERS-2 voltammeter was placed in HBSS solution for 20 min to pre-balance. At the same time, the culture medium was removed from the Transwell culture plate, 0.5 mL of pre-heated HBSS solution was added into the Apical (AP) of transwell, 1.5 mL of pre-heated HBSS solution was added into the Basolateral (BL) of transwell. After that, the transwell was balanced at 37°C for 20 min and then replaced the HBSS solution with the pre-heated HBSS solution, the TEER value was measured finally. Caco-2 cell monolayers with TEER >350 Ω cm^2 which means that the cells have formed a tight monolayer, were used for the experiment. The TEER value was calculated according to the following formula: TEER=TEERT ‐ TEERc×A where TEERT represented the TEER value (Ω) of the measured Transwell chamber with Caco-2 cells, TEERC was the TEER value (Ω) of the transwell chamber in the control group, and A was the membrane area of the transwell cavity (1.12 cm^2 in this experiment).
(§4) In order to evaluate the usability of the Transwell model research, [^3H] Propranolol (0.5 μCi/mL) and [^14C] PEG4000 (1 μCi/mL) served as high-permeability and impermeability controls to verify the uptake direction on Caco-2 cell monolayer, respectively. Rhodamine 123 was used as a positive control for efflux mechanism in bidirectional transport assay on Caco-2 cell monolayer.
(§5) The transmembrane permeability of Deg-AZM (2, 10 or 50 µM) and the potential to inhibit P-gp by Deg-AZM (2, 10 or 50 µM) were evaluated using Caco-2 cell monolayer both apical-to-basolateral (A-B) and basolateral-to-apical (B-A) directions at 37°C for 1 h, the experiments were conducted using quinidine (50 μM) as the inhibitor for P-gp. At the end of incubation, receiver and donor samples were both diluted by assay buffer and analyzed by LC-MS/MS.

[7] = test system: T2, P-gp; test: as above; assay type: in vitro ADME, human; conditions: human, Caco-2, with quinidine 50 μM, (+) quinidine 50 μM, 37°C 1 h, n = 3
T2 construct: evaluated using Caco-2 cell monolayer both apical-to-basolateral (A-B) and basolateral-to-apical (B-A) directions; endogenous in cells; host or cells: Caco-2
Experimental: as §2, §3, §4, §5

[8] = 5 μM, hepatocyte batch LHuf 17905B
[9] = 25 μM, hepatocyte batch LHuf 17905B
[10] = 100 μM, hepatocyte batch LHuf 17905B

T1 sequence (P08183 whole entry): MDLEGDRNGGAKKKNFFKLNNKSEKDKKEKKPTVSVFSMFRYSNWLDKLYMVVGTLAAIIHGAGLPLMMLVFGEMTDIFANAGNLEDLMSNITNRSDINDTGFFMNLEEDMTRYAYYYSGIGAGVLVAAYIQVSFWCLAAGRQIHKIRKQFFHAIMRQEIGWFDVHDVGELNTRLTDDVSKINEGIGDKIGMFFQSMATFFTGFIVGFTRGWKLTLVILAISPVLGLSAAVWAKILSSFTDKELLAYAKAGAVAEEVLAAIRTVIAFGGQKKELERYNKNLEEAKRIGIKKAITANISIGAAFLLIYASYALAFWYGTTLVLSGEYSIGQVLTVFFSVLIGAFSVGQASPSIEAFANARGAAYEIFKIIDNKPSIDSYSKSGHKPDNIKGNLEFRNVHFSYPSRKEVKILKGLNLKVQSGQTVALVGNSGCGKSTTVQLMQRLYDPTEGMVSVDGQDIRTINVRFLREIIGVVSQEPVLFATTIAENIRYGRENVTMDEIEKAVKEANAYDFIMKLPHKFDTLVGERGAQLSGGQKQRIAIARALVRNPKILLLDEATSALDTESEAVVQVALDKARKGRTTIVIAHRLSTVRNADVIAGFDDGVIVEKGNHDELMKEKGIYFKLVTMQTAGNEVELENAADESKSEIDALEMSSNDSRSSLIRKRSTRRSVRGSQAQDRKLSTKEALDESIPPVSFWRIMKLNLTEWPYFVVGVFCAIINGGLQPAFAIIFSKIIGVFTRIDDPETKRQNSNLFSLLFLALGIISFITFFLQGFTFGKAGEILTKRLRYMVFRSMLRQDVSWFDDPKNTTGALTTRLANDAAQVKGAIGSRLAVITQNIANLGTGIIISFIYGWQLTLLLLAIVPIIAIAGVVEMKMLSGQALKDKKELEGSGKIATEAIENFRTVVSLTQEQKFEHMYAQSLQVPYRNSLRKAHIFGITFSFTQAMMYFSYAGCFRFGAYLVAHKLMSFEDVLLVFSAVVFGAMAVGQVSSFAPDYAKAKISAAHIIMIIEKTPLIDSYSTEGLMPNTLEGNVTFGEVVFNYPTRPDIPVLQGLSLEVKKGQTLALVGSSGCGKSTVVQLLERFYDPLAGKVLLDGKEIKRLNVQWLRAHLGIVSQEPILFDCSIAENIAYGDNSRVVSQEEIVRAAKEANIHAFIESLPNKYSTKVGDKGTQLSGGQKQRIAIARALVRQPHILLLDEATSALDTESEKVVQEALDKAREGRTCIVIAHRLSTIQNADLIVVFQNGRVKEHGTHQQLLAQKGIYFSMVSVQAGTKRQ

CYP3A4 induction, % of PC ([2]; 5 μM, batch HUB): 2.15% | CYP3A4 induction, % of PC ([2]; 5 μM, batch LHuf 17905B): 5.55% | CYP3A4 induction, % of PC ([2]; 5 μM, batch MWB): 1.99% | CYP3A4 mRNA induction, times of control group ([2]; 5 μM, hepatocyte batch HUB): 1.80 | CYP3A4 mRNA induction, times of control group [2, 8]: 2.30 | CYP3A4 mRNA induction, times of control group ([2]; 5 μM, hepatocyte batch MWB): 1.96 | CYP3A4 induction, % of PC ([2]; 25 μM, batch HUB): 3.06% | CYP3A4 induction, % of PC ([2]; 25 μM, batch LHuf 17905B): 12.1% | CYP3A4 induction, % of PC ([2]; 25 μM, batch MWB): 6.32% | CYP3A4 mRNA induction, times of control group ([2]; 25 μM, hepatocyte batch HUB): 2.13 | CYP3A4 mRNA induction, times of control group [2, 9]: 3.84 | CYP3A4 mRNA induction, times of control group ([2]; 25 μM, hepatocyte batch MWB): 4.05 | CYP3A4 induction, % of PC ([2]; 100 μM, batch HUB): 13.5% | CYP3A4 induction, % of PC ([2]; 100 μM, batch LHuf 17905B): 54.2% | CYP3A4 induction, % of PC ([2]; 100 μM, batch MWB): 29.3% | CYP3A4 mRNA induction, times of control group ([2]; 100 μM, hepatocyte batch HUB): 6.01 | CYP3A4 mRNA induction, times of control group [2, 10]: 13.7 | CYP3A4 mRNA induction, times of control group ([2]; 100 μM, hepatocyte batch MWB): 15.2 | Induction effect on CYP3A4 (conclusion) ([2]; 5, 25, and 100 µM, three batches of primary human hepatocytes): has an inducing effect | CYP1A2 induction, % of PC ([3]; 5 μM, batch HUB): −0.318% | CYP1A2 induction, % of PC ([3]; 5 μM, batch LHuf 17905B): −0.507% | CYP1A2 induction, % of PC ([3]; 5 μM, batch MWB): 0.0293% | CYP1A2 mRNA induction, times of control group ([3]; 5 μM, hepatocyte batch HUB): 0.850 | CYP1A2 mRNA induction, times of control group [3, 8]: 0.721 | CYP1A2 mRNA induction, times of control group ([3]; 5 μM, hepatocyte batch MWB): 1.02 | CYP1A2 induction, % of PC ([3]; 25 μM, batch HUB): −0.349% | CYP1A2 induction, % of PC ([3]; 25 μM, batch LHuf 17905B): −0.569% | CYP1A2 induction, % of PC ([3]; 25 μM, batch MWB): −0.0814% | CYP1A2 mRNA induction, times of control group ([3]; 25 μM, hepatocyte batch HUB): 0.835 | CYP1A2 mRNA induction, times of control group [3, 9]: 0.687 | CYP1A2 mRNA induction, times of control group ([3]; 25 μM, hepatocyte batch MWB): 0.948 | CYP1A2 induction, % of PC ([3]; 100 μM, batch HUB): 0.0545% | CYP1A2 induction, % of PC ([3]; 100 μM, batch LHuf 17905B): −0.209% | CYP1A2 induction, % of PC ([3]; 100 μM, batch MWB): −0.319% | CYP1A2 mRNA induction, times of control group ([3]; 100 μM, hepatocyte batch HUB): 1.03 | CYP1A2 mRNA induction, times of control group [3, 10]: 0.885 | CYP1A2 mRNA induction, times of control group ([3]; 100 μM, hepatocyte batch MWB): 0.797 | Induction effect on CYP1A2 (conclusion) ([3]; 5, 25, and 100 µM, three batches of human hepatocytes): no induction effect | Residual proportion of Deg-AZM [4]: 107% | Deg-AZM remaining [5]: 45.7% | Papp A→B at 1 h, 2 μM ([7]; 2 μM): 8.23 ± 0.911 nm/s | Papp B→A at 1 h, 2 μM ([7]; 2 μM): 6.17 ± 0.488 nm/s | Papp A→B at 1 h, 10 μM ([7]; 10 μM): 4.71 ± 0.908 nm/s | Papp B→A at 1 h, 10 μM ([7]; 10 μM): 5.2 ± 1.19 nm/s | Papp A→B at 1 h, 50 μM ([7]; 50 μM): 5.89 ± 0.315 nm/s | Papp B→A at 1 h, 50 μM ([7]; 50 μM): 5.86 ± 1.17 nm/s
Structure (SMILES): CCC1OC(=O)C(C)C(O)C(C)C(O)C(C)(O)CC(C)CN(C)C(C)C(O)C1(C)O (stereo not shown) [Deg-AZM, Deglycosylated azithromycin]
Amount excreted in original form from feces [1]: 1.81 % of the administered dose | Amount excreted in original form from urine [1]: 14.9 % of the administered dose | P-gp substrate assessment [6]: might be the substrate of intestinal efflux transporter P-gp
